# From the supplement of paper PMC11061612
# Legend:
# SG3199 = compound: CC1=CN2[C@@H](C1)C=NC3=CC(=C(C=C3C2=O)OC)OCCCCCOC4=C(C=C5C(=C4)N=C[C@@H]6CC(=CN6C5=O)C)OC [SG3199]; conditions: max 0.001 µM
# Procedure, shortened: (§1)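 Following 24 hours at 37°C and 5% CO2, cancer cell lines in 1536-well plates with 7.5 μl DMEM/F12 or RPMI and 10% FBS were dosed for 72 hours, final DMSO typically being 0.2%. CellTiter-Glo 2.0 luminescence, scaled between blank-well and DMSO-well means, gave the viability readout. Dose responses were fitted to a two-parameter logistic curve with a non-linear mixed effects model, and the single-agent IC50 was derived from this fit.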
# Palbociclib = compound: CC(=O)c1c(C)c2cnc(Nc3ccc(N4CCNCC4)cn3)nc2n(C2CCCC2)c1=O [Palbociclib]; conditions: max 10 µM
# Procedure, shortened: as §1
# AZD6738 = compound: C[C@@H]1COCCN1C2=NC(=NC(=C2)C3(CC3)[S@](=N)(=O)C)C4=C5C=CNC5=NC=C4 [AZD6738]; conditions: max 10 µM
# Procedure, shortened: as §1
# AZD5991 = compound: Cc1c2c(nn1C)CSCc1cc(n(C)n1)CSc1cc(c3ccccc3c1)OCCCc1c(C(=O)O)n(C)c3c-2c(Cl)ccc13 [AZD5991]; conditions: max 1 µM
# Procedure, shortened: as §1
# AZD4320 = compound: CN(CC[C@H](CSC1=CC=CC=C1)NC2=C(C=C(C=C2)S(=O)(=O)NC(=O)C3=CC=C(C=C3)N4CCC(CC4)[C@H](C5=CC=CC=C5C6=CC=C(C=C6)Cl)O)S(=O)(=O)C(F)(F)F)CCO [AZD4320]; conditions: max 1 µM
# Procedure, shortened: as §1
# Gefitinib = compound: COc1cc2ncnc(Nc3ccc(F)c(Cl)c3)c2cc1OCCCN1CCOCC1 [Gefitinib]; conditions: max 10 µM
# Procedure, shortened: as §1
# Dasatinib = compound: CC1=C(C(=CC=C1)Cl)NC(=O)C2=CN=C(S2)NC3=CC(=NC(=N3)C)N4CCN(CC4)CCO [Dasatinib]; conditions: max 2 µM
# Procedure, shortened: as §1
# AZD1390 = compound: CC(C)n1c(=O)n(C)c2cnc3cc(F)c(-c4ccc(OCCCN5CCCCC5)nc4)cc3c21 [AZD1390]; conditions: max 0.3 µM
# Procedure, shortened: as §1
# AZD5153 = compound: COc1nnc2ccc(N3CCC(c4ccc(OCCN5CCN(C)C(=O)[C@H]5C)cc4)CC3)nn12 [AZD5153]; conditions: max 1 µM
# Procedure, shortened: as §1
# MK-2206 = compound: NC1(c2ccc(-c3nc4ccn5c(=O)[nH]nc5c4cc3-c3ccccc3)cc2)CCC1 [MK-2206]; conditions: max 10 µM
# Procedure, shortened: as §1
# Doxorubicin = compound: COc1cccc2c1C(=O)c1c(O)c3c(c(O)c1C2=O)C[C@@](O)(C(=O)CO)C[C@@H]3O[C@H]1C[C@H](N)[C@H](O)[C@H](C)O1 [Doxorubicin]; conditions: max 1 µM
# Procedure, shortened: as §1
# Taselisib = compound: Cc1nc(-c2cn3c(n2)-c2ccc(-c4cnn(C(C)(C)C(N)=O)c4)cc2OCC3)n(C(C)C)n1 [Taselisib]; conditions: max 10 µM
# Procedure, shortened: as §1
# Selumetinib = compound: Cn1cnc2c(F)c(Nc3ccc(Br)cc3Cl)c(C(=O)NOCCO)cc21 [Selumetinib]; conditions: max 10 µM
# Procedure, shortened: as §1
# Venetoclax = compound: CC1(C)CCC(CN2CCN(c3ccc(C(=O)NS(=O)(=O)c4ccc(NCC5CCOCC5)c([N+](=O)[O-])c4)c(Oc4cnc5[nH]ccc5c4)c3)CC2)=C(c2ccc(Cl)cc2)C1 [Venetoclax]; conditions: max 1 µM
# Procedure, shortened: as §1
# AZD7648 = compound: Cc1cc2ncnn2cc1Nc1ncc2c(n1)n(C1CCOCC1)c(=O)n2C [AZD7648]; conditions: max 10 µM
# Procedure, shortened: as §1
# Capivasertib = compound: C1CN(CCC1(C(=O)N[C@@H](CCO)C2=CC=C(C=C2)Cl)N)C3=NC=NC4=C3C=CN4 [Capivasertib]; conditions: max 10 µM
# Procedure, shortened: as §1
# Trametinib = compound: CC(=O)Nc1cccc(-n2c(=O)n(C3CC3)c(=O)c3c(Nc4ccc(I)cc4F)n(C)c(=O)c(C)c32)c1 [Trametinib]; conditions: max 1 µM
# Procedure, shortened: as §1
# Prexasertib = compound: COc1cccc(OCCCN)c1-c1cc(Nc2cnc(C#N)cn2)n[nH]1 [Prexasertib]; conditions: max 1 µM
# Procedure, shortened: as §1
# Savolitinib = compound: C[C@@H](c1ccc2nccn2c1)n1nnc2ncc(-c3cnn(C)c3)nc21 [Savolitinib]; conditions: max 1 µM
# Procedure, shortened: as §1
# SN-38 = compound: CCc1c2c(nc3ccc(O)cc13)-c1cc3c(c(=O)n1C2)COC(=O)[C@]3(O)CC [SN-38]; conditions: max 0.3 µM
# Procedure, shortened: as §1
# Lapatinib = compound: CS(=O)(=O)CCNCc1ccc(-c2ccc3ncnc(Nc4ccc(OCc5cccc(F)c5)c(Cl)c4)c3c2)o1 [Lapatinib]; conditions: max 10 µM
# Procedure, shortened: as §1
# Crizotinib = compound: C[C@@H](Oc1cc(-c2cnn(C3CCNCC3)c2)cnc1N)c1c(Cl)ccc(F)c1Cl [Crizotinib]; conditions: max 10 µM
# Procedure, shortened: as §1
# AZD8186 = compound: C[C@@H](Nc1cc(F)cc(F)c1)c1cc(C(=O)N(C)C)cc2c(=O)cc(N3CCOCC3)oc12 [AZD8186]; conditions: max 3 µM
# Procedure, shortened: as §1
# AZD1775 = compound: C=CCn1c(=O)c2cnc(Nc3ccc(N4CCN(C)CC4)cc3)nc2n1-c1cccc(C(C)(C)O)n1 [AZD1775]; conditions: max 3 µM
# Procedure, shortened: as §1
# AZD2811 = compound: CCN(CCO)CCCOc1ccc2c(Nc3cc(CC(=O)Nc4cccc(F)c4)[nH]n3)ncnc2c1 [AZD2811]; conditions: max 1 µM
# Procedure, shortened: as §1
# Olaparib = compound: O=C(c1cc(Cc2n[nH]c(=O)c3ccccc23)ccc1F)N1CCN(C(=O)C2CC2)CC1 [Olaparib]
# Procedure, shortened: as §1
# Alisertib = compound: COc1cc(Nc2ncc3c(n2)-c2ccc(Cl)cc2C(c2c(F)cccc2OC)=NC3)ccc1C(=O)O [Alisertib]; conditions: max 10 µM
# Procedure, shortened: as §1
# AZD0156 = compound: CN(C)CCCOc1ccc(-c2ccc3ncc4c(c3c2)n(C2CCOCC2)c(=O)n4C)cn1 [AZD0156]; conditions: max 3 µM
# Procedure, shortened: as §1
Cell Line,"IC50, cell viability 72 h (SG3199) [µM]","IC50, cell viability 72 h (Palbociclib) [µM]","IC50, cell viability 72 h (AZD6738) [µM]","IC50, cell viability 72 h (AZD5991) [µM]","IC50, cell viability 72 h (AZD4320) [µM]","IC50, cell viability 72 h (Gefitinib) [µM]","IC50, cell viability 72 h (Dasatinib) [µM]","IC50, cell viability 72 h (AZD1390) [µM]","IC50, cell viability 72 h (AZD5153) [µM]","IC50, cell viability 72 h (MK-2206) [µM]","IC50, cell viability 72 h (Doxorubicin) [µM]","IC50, cell viability 72 h (Taselisib) [µM]","IC50, cell viability 72 h (Selumetinib) [µM]","IC50, cell viability 72 h (Venetoclax) [µM]","IC50, cell viability 72 h (AZD7648) [µM]","IC50, cell viability 72 h (Capivasertib) [µM]","IC50, cell viability 72 h (Trametinib) [µM]","IC50, cell viability 72 h (Prexasertib) [µM]","IC50, cell viability 72 h (Savolitinib) [µM]","IC50, cell viability 72 h (SN-38) [µM]","IC50, cell viability 72 h (Lapatinib) [µM]","IC50, cell viability 72 h (Crizotinib) [µM]","IC50, cell viability 72 h (AZD8186) [µM]","IC50, cell viability 72 h (AZD1775) [µM]","IC50, cell viability 72 h (AZD2811) [µM]","IC50, cell viability 72 h (Olaparib; max 10 µM) [µM]","IC50, cell viability 72 h (Alisertib) [µM]","IC50, cell viability 72 h (AZD0156) [µM]","IC50, cell viability 72 h (Olaparib; max 3 µM) [µM]"
A2058 (Melanoma),> 0.001,> 10,> 10,> 1,> 1,> 10,> 2,> 0.3,0.656,> 10,> 1,6.33,> 10,> 1,> 10,> 10,0.236,> 1,> 1,> 0.3,8.41,8.25,> 3,1.23,> 1,> 10,1.22,> 3,–
LN-229 (Glioblastoma),> 0.001,> 10,> 10,> 1,> 1,> 10,> 2,> 0.3,> 1,> 10,> 1,> 10,> 10,> 1,> 10,> 10,> 1,0.0701,> 1,> 0.3,> 10,> 10,> 3,> 3,> 1,> 10,> 10,> 3,–
LXF-289 (Lung Adenocarcinoma),> 0.001,> 10,> 10,> 1,> 1,> 10,0.171,> 0.3,0.377,–,> 1,> 10,> 10,> 1,> 10,> 10,> 1,0.24,> 1,> 0.3,4.86,4.53,> 3,0.814,> 1,> 10,3.39,> 3,–
NCI-H23 (Lung Adenocarcinoma),> 0.001,> 10,3.27,0.319,> 1,> 10,> 2,> 0.3,0.208,> 10,> 1,> 10,> 10,> 1,> 10,> 10,0.348,0.0596,> 1,0.102,> 10,5.95,> 3,0.381,> 1,> 10,9.99,> 3,–
NCI-H446 (Small Cell Lung Carcinoma),> 0.001,> 10,4.15,> 1,0.557,> 10,> 2,> 0.3,0.209,4.5,0.499,2.86,> 10,> 1,> 10,2.66,> 1,0.0193,> 1,0.0626,6.4,1.72,> 3,0.4,0.0428,> 10,0.0548,> 3,–
OAW-42 (Ovarian Carcinoma),–,> 10,> 10,> 1,> 1,> 10,0.909,> 0.3,> 1,3,–,0.441,> 10,> 1,> 10,> 10,> 1,0.463,> 1,0.0295,> 10,> 10,> 3,> 3,> 1,–,4.55,> 3,> 3
RERF-GC-1B (Gastric Carcinoma),> 0.001,> 10,> 10,0.159,> 1,> 10,0.0282,> 0.3,0.587,> 10,0.525,1.65,> 10,> 1,> 10,> 10,0.462,0.717,> 1,0.0609,> 10,7.14,> 3,0.401,> 1,> 10,3.28,> 3,–
RERF-LC-Sq1 (Squamous Cell Lung Carcinoma),> 0.001,6.6,4.11,> 1,> 1,3.12,> 2,> 0.3,0.768,–,1,0.427,> 10,> 1,> 10,1.6,0.179,0.0366,> 1,0.167,2.64,> 10,> 3,0.681,> 1,> 10,> 10,> 3,–
SF268 (Low Grade Glioma),> 0.001,> 10,> 10,> 1,> 1,> 10,> 2,> 0.3,> 1,–,> 1,> 10,> 10,> 1,> 10,> 10,> 1,0.643,> 1,0.0235,> 10,> 10,> 3,> 3,> 1,> 10,7.28,> 3,–
SU-DHL-10 (B-Cell Non-Hodgkin's Lymphoma),> 0.001,0.435,2.62,0.0255,> 1,7.02,0.0628,> 0.3,0.0095,–,0.442,1.34,> 10,> 1,> 10,0.505,> 1,0.0272,> 1,0.013,4.97,2.48,1.08,0.586,0.0292,> 10,0.684,> 3,–
WM278 (Melanoma),> 0.001,> 10,> 10,> 1,> 1,> 10,> 2,> 0.3,> 1,–,> 1,> 10,3.57,> 1,> 10,> 10,0.0858,0.413,> 1,0.2,> 10,> 10,> 3,> 3,> 1,> 10,> 10,> 3,–
WM793B (Melanoma),> 0.001,> 10,3.1,> 1,> 1,> 10,> 2,> 0.3,0.493,–,0.471,2.8,7.02,> 1,> 10,> 10,0.175,0.0278,> 1,0.0228,> 10,> 10,> 3,1.93,> 1,> 10,> 10,> 3,–
